Reference: the supplement of paper PMC10307832

Legend:
Assay in all cases: relative viability (nuclei count vs DMSO), 5 days (fraction); higher = more cells survive
Dinaciclib + Palbociclib = compound: CCc1cnn2c(NCc3ccc[n+]([O-])c3)cc(N3CCCC[C@H]3CCO)nc12 [Dinaciclib] + CC(=O)c1c(C)c2cnc(Nc3ccc(N4CCNCC4)cn3)nc2n(C2CCCC2)c1=O [Palbociclib] (partner 0.5 µM)
Summary of the method: (§1)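 Cells from lung cancer lines were seeded into 1536-well plates and, one day later, dosed by pin tool. Treatments were either a single drug or a fixed dose of an anchor drug with five library-drug doses (not always all listed) in √10 steps. After 5 days, nuclei were stained in a one-step fixation (final 0.05% Triton X-100, 1% formaldehyde, 1 ug/ml Hoechst) and counted on 4× images, and relative viability is the treated-to-vehicle nuclei ratio, as the median of duplicate plates.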

Dinaciclib + Luminespib = compound: CCc1cnn2c(NCc3ccc[n+]([O-])c3)cc(N3CCCC[C@H]3CCO)nc12 [Dinaciclib] + CCNC(=O)c1noc(-c2cc(C(C)C)c(O)cc2O)c1-c1ccc(CN2CCOCC2)cc1 [Luminespib] (partner 0.01 µM)
Summary of the method: as §1

Dinaciclib + Linsitinib = compound: CCc1cnn2c(NCc3ccc[n+]([O-])c3)cc(N3CCCC[C@H]3CCO)nc12 [Dinaciclib] + C[C@]1(O)C[C@@H](c2nc(-c3ccc4ccc(-c5ccccc5)nc4c3)c3c(N)nccn32)C1 [Linsitinib] (partner 1 µM)
Summary of the method: as §1

Dinaciclib + AZD7762 = compound: CCc1cnn2c(NCc3ccc[n+]([O-])c3)cc(N3CCCC[C@H]3CCO)nc12 [Dinaciclib] + NC(=O)Nc1cc(-c2cccc(F)c2)sc1C(=O)N[C@H]1CCCNC1 [AZD7762] (partner 0.2 µM)
Summary of the method: as §1

Dinaciclib + Olaparib = compound: CCc1cnn2c(NCc3ccc[n+]([O-])c3)cc(N3CCCC[C@H]3CCO)nc12 [Dinaciclib] + O=C(c1cc(Cc2n[nH]c(=O)c3ccccc23)ccc1F)N1CCN(C(=O)C2CC2)CC1 [Olaparib] (partner 8 µM)
Summary of the method: as §1

Cell Line | relative viability (Dinaciclib + Palbociclib; first compound 0.009487 µM) | relative viability (Dinaciclib + Palbociclib; first compound 0.03 µM) | relative viability (Dinaciclib + Palbociclib; first compound 0.09487 µM) | relative viability (Dinaciclib + Palbociclib; first compound 0.3 µM) | relative viability (Dinaciclib + Luminespib; first compound 0.009487 µM) | relative viability (Dinaciclib + Luminespib; first compound 0.03 µM) | relative viability (Dinaciclib + Luminespib; first compound 0.09487 µM) | relative viability (Dinaciclib + Luminespib; first compound 0.3 µM) | relative viability (Dinaciclib + Linsitinib; first compound 0.009487 µM) | relative viability (Dinaciclib + Linsitinib; first compound 0.03 µM) | relative viability (Dinaciclib + Linsitinib; first compound 0.09487 µM) | relative viability (Dinaciclib + Linsitinib; first compound 0.3 µM) | relative viability (Dinaciclib + AZD7762; first compound 0.009487 µM) | relative viability (Dinaciclib + AZD7762; first compound 0.03 µM) | relative viability (Dinaciclib + AZD7762; first compound 0.09487 µM) | relative viability (Dinaciclib + AZD7762; first compound 0.3 µM) | relative viability (Dinaciclib + Olaparib; first compound 0.009487 µM) | relative viability (Dinaciclib + Olaparib; first compound 0.03 µM) | relative viability (Dinaciclib + Olaparib; first compound 0.09487 µM) | relative viability (Dinaciclib + Olaparib; first compound 0.3 µM)
NCI-H1355 | 0.425 | 0.311 | 0.154 | 0.137 | 0.703 | 0.246 | 0.135 | 0.195 | 0.899 | 0.635 | 0.151 | 0.132 | 1.02 | 0.869 | 0.267 | 0.127 | 0.755 | 0.487 | 0.133 | 0.141
NCI-H1395 | 0.596 | 0.311 | 0.248 | 0.248 | 0.631 | 0.31 | 0.244 | 0.238 | 1.56 | 0.249 | 0.297 | 0.277 | 0.324 | 0.31 | 0.276 | 0.29 | 0.469 | 0.279 | 0.264 | 0.32
NCI-H1437 | 0.245 | 0.203 | 0.117 | 0.119 | 1.1 | 0.354 | 0.152 | 0.136 | 0.839 | 0.112 | 0.0939 | 0.0919 | 1.12 | 0.16 | 0.182 | 0.163 | 0.418 | 0.159 | 0.138 | 0.158
NCI-H1651 | 0.519 | 0.383 | 0.148 | 0.0571 | 0.695 | 0.554 | 0.0648 | 0.0578 | 0.775 | 0.307 | 0.0746 | 0.0549 | 0.637 | 0.65 | 0.205 | 0.0865 | 0.215 | 0.202 | 0.106 | 0.059
NCI-H1666 | 0.672 | 0.442 | 0.6 | 0.541 | 1.07 | 0.361 | 0.357 | 0.305 | 0.656 | 0.198 | 0.209 | 0.216 | 1.01 | 0.691 | 0.32 | 0.321 | 0.774 | 0.553 | 0.484 | 0.488
NCI-H1734 | 0.26 | 0.135 | 0.122 | 0.126 | 0.165 | 0.129 | 0.119 | 0.0997 | 0.813 | 0.328 | 0.158 | 0.132 | 0.505 | 0.108 | 0.108 | 0.089 | 0.468 | 0.117 | 0.113 | 0.12
NCI-H1755 | 0.423 | 0.316 | 0.223 | 0.238 | 0.395 | 0.624 | 0.147 | 0.14 | 0.991 | 0.429 | 0.166 | 0.171 | 0.49 | 0.306 | 0.211 | 0.219 | 0.865 | 0.284 | 0.206 | 0.215
NCI-H1792 | 0.677 | 0.365 | 0.217 | 0.152 | 0.422 | 0.225 | 0.117 | 0.0889 | 0.559 | 0.317 | 0.069 | 0.0552 | 0.585 | 0.0463 | 0.032 | 0.0288 | 0.425 | 0.185 | 0.0516 | 0.0374
NCI-H1793 | 0.251 | 0.168 | 0.131 | 0.135 | 0.218 | 0.107 | 0.144 | 0.12 | 0.818 | 0.187 | 0.119 | 0.128 | 0.83 | 0.144 | 0.156 | 0.121 | 0.64 | 0.139 | 0.119 | 0.153
NCI-H1915 | 0.474 | 0.121 | 0.125 | 0.113 | 0.292 | 0.142 | 0.0885 | 0.093 | 1.06 | 0.279 | 0.136 | 0.127 | 0.763 | 0.354 | 0.115 | 0.0982 | 0.202 | 0.108 | 0.112 | 0.0974
NCI-H1944 | 0.39 | 0.13 | 0.147 | 0.123 | 0.799 | 0.142 | 0.137 | 0.137 | 1.36 | 0.613 | 0.192 | 0.225 | 0.745 | 0.0989 | 0.128 | 0.135 | 0.395 | 0.126 | 0.182 | 0.108
NCI-H1975 | 0.578 | 0.188 | 0.102 | 0.105 | 0.237 | 0.145 | 0.12 | 0.135 | 0.632 | 0.265 | 0.13 | 0.141 | 0.957 | 0.421 | 0.22 | 0.215 | 0.702 | 0.26 | 0.151 | 0.114
NCI-H1993 | 0.602 | 0.36 | 0.506 | 0.433 | 0.723 | 0.472 | 0.53 | 0.474 | 0.69 | 0.586 | – | 0.518 | 0.668 | 0.364 | 0.385 | 0.396 | 1.12 | 0.755 | 0.371 | 0.424
NCI-H2085 | 0.514 | 0.503 | 0.22 | 0.211 | 0.417 | 0.195 | 0.186 | 0.169 | 0.94 | 0.188 | 0.176 | 0.202 | 1.14 | 0.391 | 0.211 | 0.221 | 0.838 | 0.321 | 0.257 | 0.263
NCI-H2087 | 0.22 | 0.086 | 0.0942 | 0.0781 | 0.189 | 0.107 | 0.0516 | 0.0567 | 0.69 | 0.164 | 0.155 | 0.133 | 1.44 | 0.108 | 0.127 | 0.123 | 0.639 | 0.0883 | 0.0953 | 0.112
NCI-H2126 | 0.333 | 0.3 | 0.207 | 0.198 | 0.873 | 0.202 | 0.201 | 0.21 | 0.692 | 0.555 | 0.197 | 0.207 | 1.13 | 0.899 | 0.29 | 0.198 | 0.89 | 0.449 | 0.186 | 0.169
